Reference: patent publication US12643881B2, “Bicyclic amine CDK12 inhibitors” (Incyte Corporation, priority 2021, dated 2026)

Each compound was assayed against T1, CDK12 complexed with Cyclin K (Homo sapiens, UniProt Q9NYV4) (assay: Alternative CDK Enzymatic Assays (HTRF, pre-incubation with compounds and 1 mM ATP), Example A2). Details: enzyme pre-incubated with compounds and 1 mM ATP for 60 minutes; reaction 120 minutes at 25° C.
T1 construct: GST (N)
T1 sequence (Q9NYV4 whole entry): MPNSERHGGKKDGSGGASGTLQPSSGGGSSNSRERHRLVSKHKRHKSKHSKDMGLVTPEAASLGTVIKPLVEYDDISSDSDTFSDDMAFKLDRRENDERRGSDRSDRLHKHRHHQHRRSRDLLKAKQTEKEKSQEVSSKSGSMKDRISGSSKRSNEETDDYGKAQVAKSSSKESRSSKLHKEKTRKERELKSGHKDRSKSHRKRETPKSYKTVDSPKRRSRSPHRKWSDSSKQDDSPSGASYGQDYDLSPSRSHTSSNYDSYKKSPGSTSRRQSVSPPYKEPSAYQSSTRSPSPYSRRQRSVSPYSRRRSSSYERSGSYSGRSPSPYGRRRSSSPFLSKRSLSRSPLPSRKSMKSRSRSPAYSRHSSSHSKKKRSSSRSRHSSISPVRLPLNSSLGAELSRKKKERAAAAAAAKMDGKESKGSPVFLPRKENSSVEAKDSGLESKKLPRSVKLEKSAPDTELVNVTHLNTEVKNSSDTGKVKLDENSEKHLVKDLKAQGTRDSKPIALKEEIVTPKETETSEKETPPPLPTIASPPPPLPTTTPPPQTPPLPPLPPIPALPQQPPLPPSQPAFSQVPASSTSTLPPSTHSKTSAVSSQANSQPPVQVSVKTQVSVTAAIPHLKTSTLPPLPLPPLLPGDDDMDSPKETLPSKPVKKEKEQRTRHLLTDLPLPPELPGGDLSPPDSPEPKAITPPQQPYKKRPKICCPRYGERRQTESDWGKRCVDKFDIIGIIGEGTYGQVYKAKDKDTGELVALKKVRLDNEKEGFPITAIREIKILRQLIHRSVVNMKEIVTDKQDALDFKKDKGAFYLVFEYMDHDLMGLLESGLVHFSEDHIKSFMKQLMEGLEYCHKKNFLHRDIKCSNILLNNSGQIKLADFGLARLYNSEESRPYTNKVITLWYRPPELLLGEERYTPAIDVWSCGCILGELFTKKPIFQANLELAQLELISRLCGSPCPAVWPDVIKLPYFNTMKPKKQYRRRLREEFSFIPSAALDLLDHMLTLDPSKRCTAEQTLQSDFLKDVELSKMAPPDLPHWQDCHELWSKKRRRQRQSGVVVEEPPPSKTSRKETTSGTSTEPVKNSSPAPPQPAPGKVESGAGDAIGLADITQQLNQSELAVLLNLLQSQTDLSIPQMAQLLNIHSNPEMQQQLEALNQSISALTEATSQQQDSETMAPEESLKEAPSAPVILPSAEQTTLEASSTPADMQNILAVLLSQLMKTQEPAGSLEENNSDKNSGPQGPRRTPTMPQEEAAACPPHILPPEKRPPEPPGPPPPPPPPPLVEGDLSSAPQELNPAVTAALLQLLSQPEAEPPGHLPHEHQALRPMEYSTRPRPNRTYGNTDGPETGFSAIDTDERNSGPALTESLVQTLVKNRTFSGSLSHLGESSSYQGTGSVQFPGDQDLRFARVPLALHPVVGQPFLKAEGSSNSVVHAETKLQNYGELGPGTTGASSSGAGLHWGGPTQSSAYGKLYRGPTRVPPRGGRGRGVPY
T1 sequence (O75909 whole entry partner): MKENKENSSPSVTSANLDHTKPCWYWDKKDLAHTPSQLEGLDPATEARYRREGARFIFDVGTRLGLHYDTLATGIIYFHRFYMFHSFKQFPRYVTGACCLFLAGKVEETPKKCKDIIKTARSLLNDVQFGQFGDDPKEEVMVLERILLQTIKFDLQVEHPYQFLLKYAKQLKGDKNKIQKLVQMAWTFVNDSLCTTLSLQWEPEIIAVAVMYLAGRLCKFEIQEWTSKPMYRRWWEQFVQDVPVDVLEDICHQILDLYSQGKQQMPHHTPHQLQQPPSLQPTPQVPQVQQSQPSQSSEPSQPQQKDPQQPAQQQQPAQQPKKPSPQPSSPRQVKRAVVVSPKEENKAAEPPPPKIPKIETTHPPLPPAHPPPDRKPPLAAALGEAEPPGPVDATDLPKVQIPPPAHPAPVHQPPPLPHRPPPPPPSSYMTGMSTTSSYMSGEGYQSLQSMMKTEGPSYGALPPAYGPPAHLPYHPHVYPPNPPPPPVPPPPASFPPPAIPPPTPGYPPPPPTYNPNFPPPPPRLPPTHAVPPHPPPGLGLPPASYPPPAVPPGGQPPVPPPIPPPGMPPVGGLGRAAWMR
Format: biochemical
Source text: Example A2. Alternative CDK Enzymatic Assays
The following activity of the CDK enzymes in complex with their respective cyclins we assayed: CDK1 complexed with Cyclin B1; CDK2 complexed with Cyclin E1; CDK4 complexed with Cyclin D1; CDK6 complexed with Cyclin D1; CDK6 complexed with Cyclin D3; CDK9 complexed with Cyclin T1; CDK7 complexed with Cyclin H/MAT1; CDK2 complexed with Cyclin A2; CDK5 complexed with p35; CDK12 complexed with Cyclin K; CDK13 complexed with Cyclin K. These in vitro enzyme activity are assayed using homogeneous time-resolved energy transfer (HTRF), which measures phosphorylation of a peptide substrate. The LANCER Ultra kinase assay (PerkinElmer) uses a ULight™-labeled EIF4E-binding protein 1 (THR37/46) peptide (DYSTTPGGTLFSTTPGTRI (SEQ ID NO: 1)) substrate and a Europium-labeled anti-phospho-4E-BP1 antibody (CDK2, CDK1, CDK4, CDK6, CDK9, CDK12, CDK13) or ULight™-labeled Myelin Basic Protein peptide (VTPRTPPP (SEQ ID NO: 2)) substrate and a Europium-labeled anti-phospho-MBP antibody (CDK7). Each CDK enzyme activity assays utilized human CDK co-expressed as N-terminal GST-tagged protein with its full length cyclin partner using a baculovirus expression system.
Enzyme was pre-incubated with compounds and 1 mM ATP for 60 minutes (CDK 1, 2, 4, 6, 9, 7, 12, 13) prior to the addition of ATP and Ulight-peptide (1 mM and 50 nM final, respectively), in assay buffer containing 50 mM HEPES pH 7.5, 1 mM EGTA, 10 mM MgCl2, 2 mM DTT, 0.05 mg/mL BSA, and 0.01% Tween 20. The reaction was then incubated for 120 minutes at 25° C. incubator. The reactions were stopped by the addition of EDTA and Europium labeled antibody, for a final concentration of 15 mM and 0.5-1.5 nM, respectively. HTRF signals were read after 15-120 minutes. A ratio of fluorescence transferred to the labeled substrate (665 nm) relative to fluorescence of the Europium donor (620 nm) represents the extent of phosphorylation. Ratios for treated wells were normalized to DMSO only (100% activity) and no enzyme (0% activity) controls. Normalized data was analyzed using a three or four parameter dose response curve to determine IC50 for each compound and are shown in Table B. Control reference inhibitors were included on each plate.
Work on `Cc1cc2c(cc1NC(=O)C#CC(C)(C)O)nc(N1C[C@H](F)C[C@@H](Nc3ncc(C(F)(F)F)cn3)C1)n2C` [Example 113, N-(2-((3R,5R)-3-Fluoro-5-((5-(trifluoromethyl)pyrimidin-2-yl)amino)piperidin-1-yl)-1,6-dimethyl-1H-benzo[d]imidazol-5-yl)-4-hydroxy-4-methylpent-2-ynamide] yielded an IC50 of under 50 nM. Compound `C=CC(=O)Nc1ccc2c(c1)nc(N1C[C@H](O)C[C@@H](Nc3ncc(C#N)cn3)C1)n2C` [Example 122, N-(2-((3R,5R)-3-((5-Cyanopyrimidin-2-yl)amino)-5-hydroxypiperidin-1-yl)-1-methyl-1H-benzo[d]imidazol-5-yl)acrylamide] has an IC50 of under 50 nM. `C=CC(=O)Nc1ccc2c(c1)nc(N1CCC[C@@H](Nc3ncc(C#N)s3)C1)n2C` [Example 129, (R)—N-(2-(3-((5-Cyanothiazol-2-yl)amino)piperidin-1-yl)-1-methyl-1H-benzo[d]imidazol-5-yl)acrylamide] showed an IC50 of under 50 nM. With `[2H]C([2H])([2H])c1cc2c(cc1NC(=O)C=C)nc(N1C[C@H](F)C[C@@H](Nc3ncc(C(F)(F)F)cn3)C1)n2C` [Example 135, N-(2-((3R,5R)-3-Fluoro-5-((5-(trifluoromethyl)pyrimidin-2-yl)amino)piperidin-1-yl)-1-methyl-6-(methyl-d3)-1H-benzo[d]imidazol-5-yl)acrylamide] the IC50 was under 50 nM. `C=CC(=O)N[C@@H]1CCN(c2nccn3c(N4C[C@H](F)C[C@@H](Nc5ncc(C(F)(F)F)cn5)C4)ncc23)C1` [Example 86, N—((R)-1-(3-((3R,5R)-3-Fluoro-5-((5-(trifluoromethyl)pyrimidin-2-yl)amino)piperidin-1-yl)imidazo[1,5-a]pyrazin-8-yl)pyrrolidin-3-yl)acrylamide] showed an IC50 of 50 to 500 nM. Compound `C=CC(=O)Nc1cc2nc(N3CC[C@H](O)[C@@H](Nc4ncc(C(F)(F)F)cn4)C3)n(C)c2cc1C` [Example 149, N-(2-((3S,4S)-4-Hydroxy-3-((5-(trifluoromethyl)pyrimidin-2-yl)amino)piperidin-1-yl)-1,6-dimethyl-1H-benzo[d]imidazol-5-yl)acrylamide] has an IC50 of over 500 nM. `Cc1cc2c(cc1NC(=O)/C=C/C(C)(C)O)nc(N1C[C@H](F)C[C@@H](Nc3ncc(C(F)(F)F)cn3)C1)n2C` [Example 112, (E)-N-(2-((3R,5R)-3-Fluoro-5-((5-(trifluoromethyl)pyrimidin-2-yl)amino)piperidin-1-yl)-1,6-dimethyl-1H-benzo[d]imidazol-5-yl)-4-hydroxy-4-methylpent-2-enamide] was tested, and the IC50 was over 500 nM. `C=CC(=O)Nc1cc2nc(N3C[C@H](F)C[C@@H](Nc4ncc(C(F)(F)F)cn4)C3)n(C)c2cc1F` [Example 132, N-(6-Fluoro-2-((3R,5R)-3-fluoro-5-((5-(trifluoromethyl)pyrimidin-2-yl)amino)piperidin-1-yl)-1-methyl-1H-benzo[d]imidazol-5-yl)acrylamide] gave an IC50 of under 50 nM. In the case of `C=CC(=O)N1CCC12CN(c1nccn3c(N4C[C@H](F)C[C@@H](Nc5ncc(C(F)(F)F)cn5)C4)ncc13)C2` [Example 105, 1-(6-(3-((3R,5R)-3-Fluoro-5-((5-(trifluoromethyl)pyrimidin-2-yl)amino)piperidin-1-yl)imidazo[1,5-a]pyrazin-8-yl)-1,6-diazaspiro[3.3]heptan-1-yl)prop-2-en-1-one], the IC50 is reported as under 50 nM. With `C=CC(=O)N1C[C@@H]2C[C@H]1CN2c1nccn2c(N3C[C@H](F)C[C@@H](Nc4ncc(C(F)(F)F)cn4)C3)ncc12` [Example 107, 1-((1S,4S)-5-(3-((3R,5R)-3-Fluoro-5-((5-(trifluoromethyl)pyrimidin-2-yl)amino)piperidin-1-yl)imidazo[1,5-a]pyrazin-8-yl)-2,5-diazabicyclo[2.2.1]heptan-2-yl)prop-2-en-1-one] the IC50 was 50 to 500 nM. `C=CC(=O)Nc1ccc2c(nc(N3CCC[C@@H](Nc4ncc(C(F)(F)F)cn4)C3)n2C)c1C` [Example 156, (R)—N-(1,4-Dimethyl-2-(3-((5-(trifluoromethyl)pyrimidin-2-yl)amino)piperidin-1-yl)-1H-benzo[d]imidazol-5-yl)acrylamide] was tested, and the IC50 was under 50 nM. For `CC#CC(=O)Nc1cc2nc(N3C[C@H](F)C[C@@H](Nc4ncc(C(F)(F)F)cn4)C3)n(C)c2cc1C` [Example 116, N-(2-((3R,5R)-3-Fluoro-5-((5-(trifluoromethyl)pyrimidin-2-yl)amino)piperidin-1-yl)-1,6-dimethyl-1H-benzo[d]imidazol-5-yl)but-2-ynamide], the IC50 was 50 to 500 nM. `C=CC(=O)N1CCCCC1c1nccn2c(N3CCC[C@@H](Nc4ncc(C(F)(F)F)cn4)C3)ncc12` (stereo partly drawn) [Example 108, 1-(2-(3-((R)-3-((5-(Trifluoromethyl)pyrimidin-2-yl)amino)piperidin-1-yl)imidazo[1,5-a]pyrazin-8-yl)piperidin-1-yl)prop-2-en-1-one] was tested, and the IC50 was 50 to 500 nM. `C=CC(=O)Nc1cc2nc(N3C[C@H](F)C[C@@H](Nc4ncc(C(F)F)cn4)C3)n(C)c2cc1C` [Example 160, N-(2-((3R,5R)-3-((5-(Difluoromethyl)pyrimidin-2-yl)amino)-5-fluoropiperidin-1-yl)-1,6-dimethyl-1H-benzo[d]imidazol-5-yl)acrylamide] showed an IC50 of 50 to 500 nM. Work on `C=CC(=O)Nc1cc2nc(N3C[C@H](F)C[C@@H](Nc4ncc(C(F)(F)F)cn4)C3)n(C)c2cc1C(=O)N1CCOCC1` [Example 137, N-(2-((3R,5R)-3-Fluoro-5-((5-(trifluoromethyl)pyrimidin-2-yl)amino)piperidin-1-yl)-1-methyl-6-(morpholine-4-carbonyl)-1H-benzo[d]imidazol-5-yl)acrylamide] yielded an IC50 of 50 to 500 nM. `C=CC(=O)Nc1cc2nc(N3C[C@H](F)C[C@@H](Nc4ncc(C#N)s4)C3)n(C)c2cc1C` [Example 162, N-(2-((3R,5R)-3-((5-Cyanothiazol-2-yl)amino)-5-fluoropiperidin-1-yl)-1,6-dimethyl-1H-benzo[d]imidazol-5-yl)acrylamide] showed an IC50 of 50 to 500 nM. Compound `C=CC(=O)Nc1cc2nc(N3C[C@H](F)C[C@@H](Nc4ncc(C(F)(F)F)cn4)C3)n(C)c2cc1C#N` [Example 140, N-(6-Cyano-2-((3R,5R)-3-fluoro-5-((5-(trifluoromethyl)pyrimidin-2-yl)amino)piperidin-1-yl)-1-methyl-1H-benzo[d]imidazol-5-yl)acrylamide] has an IC50 of under 50 nM. `C=CC(=O)Nc1cc2nc(N3C[C@H](F)C[C@@H](Nc4ncc(C#N)c(N(C)C)n4)C3)n(C)c2cc1C` [Example 157, N-(2-((3R,5R)-3-((5-Cyano-4-(dimethylamino)pyrimidin-2-yl)amino)-5-fluoropiperidin-1-yl)-1,6-dimethyl-1H-benzo[d]imidazol-5-yl)acrylamide] was tested, and the IC50 was 50 to 500 nM. `C=CC(=O)Nc1cc2nc(N3C[C@H](F)C[C@@H](Nc4ncc(C#N)cn4)C3)n(C)c2cc1C` [Example 96, N-(2-((3R,5R)-3-((5-cyanopyrimidin-2-yl)amino)-5-fluoropiperidin-1-yl)-1,6-dimethyl-1H-benzo[d]imidazol-5-yl)acrylamide] gave an IC50 of 50 to 500 nM. Work on `C=CC(=O)Nc1ccc2c(c1)nc(N1CCC[C@@H](Nc3ncc(C(F)(F)F)cn3)C1)n2C` [Example 123, (R)—N-(1-Methyl-2-(3-((5-(trifluoromethyl)pyrimidin-2-yl)amino)piperidin-1-yl)-1H-benzo[d]imidazol-5-yl)acrylamide] yielded an IC50 of under 50 nM. `C=CC(=O)Nc1ccc2c(c1)nc(N1CC[C@@H](F)[C@@H](Nc3ncc(C#N)cn3)C1)n2C` [Example 125, N-(2-((3S,4R)-3-((5-Cyanopyrimidin-2-yl)amino)-4-fluoropiperidin-1-yl)-1-methyl-1H-benzo[d]imidazol-5-yl)acrylamide] gave an IC50 of under 50 nM. `C=CC(=O)Nc1c(C)cc2c(nc(N3C[C@H](F)C[C@@H](Nc4ncc(C#N)cn4)C3)n2C)c1Br` [Example 145, N-(4-Bromo-2-((3R,5R)-3-((5-cyanopyrimidin-2-yl)amino)-5-fluoropiperidin-1-yl)-1,6-dimethyl-1H-benzo[d]imidazol-5-yl)acrylamide] gave an IC50 of 50 to 500 nM. `C=CC(=O)Nc1c(C)cc2c(nc(N3C[C@H](F)C[C@@H](Nc4ncc(C(F)(F)F)cn4)C3)n2C)c1Br` [Example 146, N-(4-Bromo-2-((3R,5R)-3-fluoro-5-((5-(trifluoromethyl)pyrimidin-2-yl)amino)piperidin-1-yl)-1,6-dimethyl-1H-benzo[d]imidazol-5-yl)acrylamide] showed an IC50 of 50 to 500 nM. `C=CC(=O)Nc1ccc2c(c1)nc(N1CC[C@H](F)[C@@H](Nc3ncc(C#N)cn3)C1)n2C` [Example 126, N-(2-((3S,4S)-3-((5-Cyanopyrimidin-2-yl)amino)-4-fluoropiperidin-1-yl)-1-methyl-1H-benzo[d]imidazol-5-yl)acrylamide] was tested, and the IC50 was under 50 nM.
